Laboratory results: patent publication US9012433B2, “Substituted tetracycline compounds” (Paratek Pharmaceuticals, Inc., priority 2006, dated 2015)
≈ marks a conversion by molar mass, not a printed value. Like-named read-outs stand apart in the source and are kept apart here.

Key:
Format in all cases: cell-based
[1] = test system: B. thetaiotaomicron ATCC 29741; assay: Antibacterial MIC, CLSI broth microdilution; details: Bacteroides thetaiotaomicron
Description: (§1) Grain (−) and gram (+) antibacterial minimum inhibitory concentration (MIC) values (μg/mL) were obtained using CLSI methodology for anti-bacterial susceptibility testing. On each day of testing, serial dilutions of compounds were prepared in microdilution plates using a Tecan robotic workstation. Mueller Hinton broth cultures of representative sensitive and resistant gram negative strains were grown or adjusted to match the turbidity of a 0.5 McFarland standard. 1:200 dilutions were made in an appropriate broth (cation supplemented Mueller Hinton broth) to allow a final inoculum of 1×10^5 cfu. Plates were incubated at 35° C. in ambient air for 18-24 hours, were read spectrophotometrically and checked manually for evidence of bacterial growth. The lowest dilution of compound that inhibited growth was recorded as the MIC. Lysed horse blood was used to supplement broth for testing S. pneumoniae. The MIC's for each compound were assessed against S. aureus, S. pneumoniae, P. acnes, E. coli and B. theta.

[2] = test system: E. coli ATCC 25922; assay: Antibacterial MIC, CLSI broth microdilution; details: Escherichia coli, ATCC25922; 35° C., 18-24 hours
Description: as §1

[3] = test system: E. coli MG 1655; assay: Antibacterial MIC, CLSI broth microdilution; details: Escherichia coli, MG1655; 35° C., 18-24 hours
Description: as §1

[4] = test system: P. acnes ATCC 11827; assay: Antibacterial MIC, CLSI broth microdilution; details: Cutibacterium acnes, ATCC11827; 35° C., 18-24 hours
Description: as §1

[5] = test system: P. acnes ATCC 6919; assay: Antibacterial MIC, CLSI broth microdilution; details: Cutibacterium acnes, ATCC6919; 35° C., 18-24 hours
Description: as §1

[6] = test system: S. aureus RN450; assay: Antibacterial MIC, CLSI broth microdilution; details: Staphylococcus aureus, RN450; 35° C., 18-24 hours
Description: as §1

[7] = test system: S. pneumoniae 157E - Strep; assay: Antibacterial MIC, CLSI broth microdilution; details: Streptococcus pneumoniae, 157ESTREP; 35° C., 18-24 hours; lysed horse blood
Description: as §1

[8] = in vitro
Description: Mammalian cell cytotoxicity was assessed to evaluate potential in vivo risks associated with the tetracycline compounds of the invention. A soluble, non-toxic redox dye (“Resazurin”; Alamar Blue) was used to assess a tetracycline compound's effect on cellular metabolism. At the onset of the experiment, cultures of mammalian COS-1 or CHO cells were washed, trypsinized, and harvested. […] On the next day, serial dilutions of test drug were prepared under sterile conditions and transferred to cell plates. Plates were then incubated under the above conditions for 24 hours. Following the incubation period, the media/drug was aspirated, and 50 μL of resazurin was added. Plates were then incubated under the above conditions for 2 hours and then in the dark at room temperature for an additional 30 minutes. Fluorescence measurements were taken (excitation 535 nm, emission 590 nm) and toxic effects in treated versus control cells were compared based on the degree of fluorescence in each well.

[9] = ATCC29741, 35° C., 18-24 hours, read-out: MIC B. thetaiotaomicron ATCC 29741

Structure (SMILES)	MIC [1, 9] [µg/mL]	MIC [2] [µg/mL]	MIC [3] [µg/mL]	MIC [4] [µg/mL]	MIC [5] [µg/mL]	MIC [6] [µg/mL]	MIC [7] [µg/mL]	IC50 at 24 h ([8]; African green monkey) [µg/mL]	IC50 at 24 h ([8]; Chinese hamster) [µg/mL]	MIC ([1]; ATCC29741, read-out: MIC B. thetaiotaomicron ATCC 29741) [µg/mL]
CC(=O)c1cccc2c1C[C@H]1C[C@H]3[C@@H](N(C)C)C(O)=C(C(N)=O)C(=O)[C@@]3(O)C(O)=C1C2=O [D]	> 8	> 8	> 8	4 to 8 (≈ 9.08 to 18.2 µM)	4 to 8 (≈ 9.08 to 18.2 µM)	< 4	< 4	> 75	> 75	–
CN(C)[C@H]1C(O)=C(C(N)=O)C(=O)[C@@]2(O)C(O)=C3C(=O)c4c(O)ccc(CNOCC(F)(F)F)c4C[C@H]3C[C@@H]12 [EA]	4 to 8 (≈ 7.39 to 14.8 µM)	> 8	> 8	< 4	< 4	< 4	4 to 8 (≈ 7.39 to 14.8 µM)	> 75	> 75	–
CN(C)[C@H]1C(O)=C(C(N)=O)C(=O)[C@@]2(O)C(O)=C3C(=O)c4c(O)ccc(CNOCCF)c4C[C@H]3C[C@@H]12 [EB]	4 to 8 (≈ 7.91 to 15.8 µM)	> 8	> 8	< 4	< 4	< 4	4 to 8 (≈ 7.91 to 15.8 µM)	–	–	–
CN(C)[C@@H]1C(O)=C(C(N)=O)C(=O)[C@@]2(O)C(O)=C3C(=O)c4c(O)ccc(CN5OCCC5=N)c4C[C@H]3C[C@@H]12 [EC]	–	> 8	> 8	–	–	< 4	< 4	–	–	–
COC(=O)CONCc1ccc(O)c2c1C[C@H]1C[C@H]3[C@H](N(C)C)C(O)=C(C(N)=O)C(=O)[C@@]3(O)C(O)=C1C2=O [ED]	< 4	4 to 8 (≈ 7.53 to 15.1 µM)	4 to 8 (≈ 7.53 to 15.1 µM)	< 4	< 4	< 4	< 4	< 35	< 35	–
CC(=O)c1cccc2c1C[C@H]1C[C@H]3[C@H](N(C)C)C(O)=C(C(N)=O)C(=O)[C@@]3(O)C(O)=C1C2=O [E]	> 8	4 to 8 (≈ 9.08 to 18.2 µM)	> 8	< 4	< 4	< 4	< 4	> 75	> 75	–
C=CCN(Cc1ccc(O)c2c1C[C@H]1C[C@H]3[C@H](N(C)C)C(O)=C(C(N)=O)C(=O)[C@@]3(O)C(O)=C1C2=O)C(=O)OC [F]	4 to 8 (≈ 7.39 to 14.8 µM)	> 8	> 8	< 4	< 4	< 4	< 4	< 35	< 35	–
CON(C)Cc1ccc2c(c1O)C(=O)C1=C(O)[C@]3(O)C(=O)C(C(N)=O)=C(O)[C@@H](N(C)C)[C@@H]3C[C@@H]1C2 [GL]	–	> 8	> 8	4 to 8 (≈ 8.2 to 16.4 µM)	4 to 8 (≈ 8.2 to 16.4 µM)	4 to 8 (≈ 8.2 to 16.4 µM)	4 to 8 (≈ 8.2 to 16.4 µM)	35 to 75 (≈ 71.8 to 154 µM)	35 to 75 (≈ 71.8 to 154 µM)	4 to 8 (≈ 8.2 to 16.4 µM)
CCONCc1ccc2c(c1O)C(=O)C1=C(O)[C@]3(O)C(=O)C(C(N)=O)=C(O)[C@@H](N(C)C)[C@@H]3C[C@@H]1C2 [GM]	4 to 8 (≈ 8.2 to 16.4 µM)	> 8	> 8	4 to 8 (≈ 8.2 to 16.4 µM)	< 4	< 4	< 4	< 35	< 35	–
CC1CCN(Cc2cccc3c2C[C@H]2C[C@H]4[C@@H](N(C)C)C(O)=C(C(N)=O)C(=O)[C@@]4(O)C(O)=C2C3=O)CC1 [G]	> 8	4 to 8 (≈ 7.85 to 15.7 µM)	> 8	4 to 8 (≈ 7.85 to 15.7 µM)	4 to 8 (≈ 7.85 to 15.7 µM)	< 4	< 4	> 75	> 75	–
